As usually defined, the IC25 is the concentration at which the effect reaches the 25% level. Higher therefore signals weaker potency. In general, IC75 refers to the concentration at which the effect reaches the 75% level. Low readings indicate an effect from little substance, high ones a need for much substance. One may read the IC50 as the concentration needed to halve the response being measured.

The results in this text go back to patent publication US10980853B2, “Process for preparing a crassocephalum crepidioides extract, extract prepared thereby and use of the extract” (DEVELOPMENT CENTER FOR BIOTECHNOLOGY, priority 2015, dated 2021).

In experiment [1] the test system is MKN45 cells. Put plainly: Inhibition of the growth of MKN45 cancer cells (MTS assay). The experiment is classed as cell-based. How it is done: (§1) MKN45 cells were incubated in RPMI-1640 medium (Sigma-Aldrich) containing 5% FBS (Gibco®). 6×10^3 cells were added to each well of a 96-well plate. Each well contained 180 μL of the above medium. The plate was incubated at 37° C. for 4 hours, and then 20 μL of various concentrations of each of the raw extract, Cr-E03 and dLGG were added to each well of the plate. Each concentration was tested with 3 replicates. After further incubation at 37° C. for 48 hours, the medium in the wells was removed, and 180 μL of 5% FBS medium containing 3-(4,5-dimethylthiazol-2-yl)-5-(3-carboxymethoxyphenyl)-2-(4-sulfophenyl)-2H-tetrazolium (MTS) were added to the wells. After reaction at 37° C. for 1 hour, the absorption values at 490 nm of the wells were measured by ELISA Reader (Model 680 Microplate Reader, Bio-Rad). IC25, IC50 and IC75 values of the raw extract, Cr-E03 and dLGG, respectively, were obtained by calculation using GraphPad Prism 5 software (GraphPad Software, Inc). IC25, IC50 and IC75 values are defined as the concentrations of the test sample which achieve 25%, 50% and 75%, respectively, of the maximal inhibition of the growth of MKN45 cells.
For orientation: Formazan colour is commonly taken as a measure of viable cells.

Experiment [2] relates to MKN45 cells. Put plainly: Combination with 5-FU or epirubicin in the inhibition of the growth of MKN45 cancer cells (combination index). The experiment is classed as cell-based. The following applies: CI<1 synergism, CI=1 addition, CI>1 antagonism. As for the experimental part: as §1
Combinations of different concentrations of each of the raw extract, Cr-E03 and dLGG with different concentrations of each of 5-fluorouracil (5-FU) and epirubicin were prepared. […]

In brackets after ≈: the same amount, converted by molar mass.

The compound `CC/C=C\C/C=C\C/C=C\CCCCCCCC(=O)OC[C@H](CO[C@@H]1O[C@H](CO)[C@H](O)[C@H](O)[C@H]1O)OC(=O)CCCCCCC/C=C\C/C=C\C/C=C\CC` [dLGG, 1,2-di-O-α-linolenoyl-3-O-β-galactopyranosyl-sn-glycerol] displayed an IC25 in experiment [1] (48 hours, concentration achieving 25% of maximal growth inhibition) of 35.86 µg/mL (≈ 46.3 µM). This compound also gave an IC75 in experiment [1] (48 hours, concentration achieving 75% of maximal growth inhibition) of 61.96 µg/mL (≈ 79.9 µM). 47.3 µg/mL (≈ 61 µM) corresponded to half-maximal inhibition in experiment [1] (Homo sapiens, MKN-45, 48 hours, concentration achieving 50% of maximal growth inhibition) (IC50). For the same compound, the “CI (combination index)” value in experiment [2] (combination with 5FU) and in experiment [2] (combination with Epi (epirubicin)) was 1.58 in each case.
